# Experiments:
# Human PBMCs = test: Expansion of Vγ9Vδ2 T cells from PBMCs, cell frequencies by flow cytometry; type: cell-based
# Description: FIGS. 1A to 1D (collectively referred to as “FIG. 1”) show the characterization of the cells expanded with Zometa, OKT3 and gamma-irradiated K562 aAPCs. Human PBMCs were first expanded with Zometa for 7 days, followed by treatment with Zometa, OKT3 and gamma-irradiated K562 aAPCs for another 10 days. Frequencies of Vγ9Vδ2 T cells (FIG. 1A), NKG2D-positive cells (FIG. 1B), CD3-positive alpha beta T cells (FIG. 1C) and CD3-negative, CD56-positive NK cells (FIG. 1D) in PBMCs, on day 7 and day 17 analyzed by flow cytometry are shown. PBMC samples from 7 donors were tested and each sample is represented by one line.
# Human PBMC were isolated from fresh buffy coat of healthy donors by density gradient centrifugation using Ficoll-Paque (GE Healthcare, Milwaukee, Wis.). Human myelogenous leukemia cell line K562 (ATCC) and a K562-based aAPC cell line genetically engineered for stable expression of EGFP, CD86, CD64 and 4-1BBL (Du et al., 2016) were cultured in IMDM (Lonza Biotech, Basel, Switzerland) supplemented with 10% FBS. Other tumor cell lines used in the present invention were cultured in DMEM supplemented with 10% FBS.
# (§1) For Vγ9Vδ2 T cell activation and expansion, PBMCs were seeded at a density of 2E6 cells/ml in AIM-V (Life Technologies) supplemented with 5% human AB serum (Valley Biomedical, Winchester, Va.). Zometa (5 μM, Sigma Aldrich, St. Louis, Mo.) and IL-2 (300 IU/ml) were added on day 0, followed by adding 50 ng/ml anti-CD3 antibody (OKT3 clone, eBioscience, San Diego, Calif.), gamma irradiated K562 aAPCs at a 100:1 ratio, 300 IU/ml IL-2, and 5 μM Zometa from day 7 onwards. […] The culture medium was refreshed every 2 to 3 days. In other words, the cells were passaged every 2 to 3 days.
# [1] = test system: CTLA-4, PD1, LAG3, TIGIT, TIM3, and BTLA; test: Expression of co-inhibitory receptors on PBMCs and expanded cells by flow cytometry; type: cell-based, human
# Description: FIGS. 2A to 2F (collectively referred to as “FIG. 2”) show the expression of co-inhibitory receptors CTLA-4 (FIG. 2A), PD-1 (FIG. 2B), LAG-3 (FIG. 2C), TIGIT (FIG. 2D), TIM-3 (FIG. 2E) and BTLA (FIG. 2F) on PBMCs and the expanded cells. Human PBMCs were first expanded with Zometa for 7 days, followed by treatment with Zometa, OKT3 and gamma-irradiated K562 aAPCs for another 10 days. The expression frequencies of 6 co-inhibitory receptors on PBMCs and on the expanded cells collected on day 7 and day 17 analyzed by flow cytometry are shown. PBMC samples from 7 donors were tested and each sample is represented by one line.
# as §1
# In view of the important roles of co-inhibitory receptors in cancer therapy, the expression of six of them, namely, CTLA-4, PD1, LAG3, TIGIT, TIM3, and BTLA, on the Zometa-expanded Vγ9Vδ2 T cells was examined using flow cytometry (FIG. 2).
# [2] = test system: SW480 human colon carcinoma cells, HepG2 human hepatocarcinoma cells, U87 human glioblastoma cells and SKOV3 human ovarian cancer cells; test: Delfia EuTDA cytotoxicity assay, tumor cells with or without Zometa pre-treatment; type: cell-based; conditions: 1 μM Zometa pre-treatment of tumor cells
# Procedure: Target tumor cells tested were SW480 human colon carcinoma, HepG2 human hepatocarcinoma cells, U87 human glioblastoma cells and SKOV3 human ovarian cancer cells. Tumor cells were either pre-treated with 1 μM Zometa or without Zometa treatment. Effector used are indicated. Delfia EuTDA cytotoxicity assay (3 hours EuTDA culturing) was used to assess tumor cell lysis efficiency at an effector to target ratio of 10:1. The results of one representative experiment out of three are shown.
# The cytolytic activity of CAR-modified Vγ9Vδ2 T cells was examined with a non-radioactive method (DELFIA EuTDA Cytotoxicity Reagents kit, PerkinElmer, MA). Time-resolved fluorescence was measured in Victor3 multilabel plate counter (PerkinElmer). The effector to target (E:T) ratios used ranged from 20:1 to 2.5:1. Control groups were set up to measure spontaneous release (only target cells added), maximum release (target cells added with 10 μl lysis buffer), and medium background (no cell added). Killing efficacy was calculated by using the following formula: […]
# Zometa treatment was used because Zometa can increase intracellular levels of IPP, thereby increasing the sensitivity of tumor cells to Vγ9Vδ2 T cells.
# [3] = PBMCs treated with Zometa, day 7
# [4] = 7 days after Zometa treatment, all 7 samples
smiles,measurement,setting,value
"O=P(O)(O)C(O)(Cn1ccnc1)P(=O)(O)O [Zometa, zoledronic acid]",NKG2D-positive cell population,"Human PBMCs; PBMCs treated with 5 μM Zometa, day 0 to day 7",increase
same,Vγ9Vδ2 T-cell population,"Human PBMCs; PBMCs treated with 5 μM Zometa, day 7",~90%
same,proportion of NK cells,Human PBMCs; [3],less than 3%
same,proportion of αβ T cells,Human PBMCs; [3],less than 10%
same,CTLA-4-expressing cells,[1]; [4],significant increase
same,LAG3-expressing cells,[1]; [4],significant increase
same,TIGIT-expressing cells,[1]; [4],significant increase
same,TIM3-expressing cells,[1]; [4],significant increase
same,frequency of PD1-positive cells,"[1]; 7 days after Zometa treatment, remaining samples (one sample increased, one decreased)",minor increase or no change
same,BTLA expression,[1]; Zometa treatment for 7 days,reduced
same,sensitivity of HepG2 cells towards Vγ9Vδ2 T cells,[2]; HepG2,not
same,sensitivity of SKOV3 cells towards Vγ9Vδ2 T cells,[2]; SKOV3,significantly increased
same,sensitivity of SW480 cells towards Vγ9Vδ2 T cells,[2]; SW480,significantly increased
same,sensitivity of U87 cells towards Vγ9Vδ2 T cells,[2]; U87,significantly increased
